Test results reported in article PMC8876255 (Bioorganic & medicinal chemistry letters, 2021).

What was measured:
[1] = tested on: UPR markers sXbp1, HSPA5A (BiP), DDIT3 (CHOP) in MDA-MB-231 cells; experiment: UPR / ER stress gene induction by qPCR; type: cell-based; conditions: MDA-MB-231, 6 h, 2 times the EC50, qPCR
MDA-MB-231 cells = experiment: Cancer cell viability assay; type: cell-based

| Structure (SMILES) | accumulation of spliced Xbp1 transcription factor [1] | inhibitory effect on cell growth (MDA-MB-231 cells; MDA-MB-231 viability assay, negative control) | additive or synergistic effect with JMS-053 on viability (MDA-MB-231 cells; addition of 20–60 μM 4 to MDA-MB-231 cells treated with JMS-053) | expression of pro-apoptotic gene CHOP (DDIT3) [1] |
| --- | --- | --- | --- | --- |
| O=C(CC12CC3CC(CC(C3)C1)C2)NCCCCOc1ccc(-c2cc3c(s2)C(=O)C(=O)NC3=O)cc1 [Compound 7b] | significantly lower accumulation |  |  |  |
| O=C(CC12CC3CC(CC(C3)C1)C2)NCCCCO [Compound 4] |  | negligible inhibitory effects on cell growth | failed to detect any changes in viability |  |
| N=C1C(=O)NC(=O)c2cc(-c3ccc(OCCCCNC(=O)CC45CC6CC(CC(C6)C4)C5)cc3)sc21 [Compound 7a] | moderate accumulation |  |  | strongly enhanced expression |
